This is an account of results in paper PMC12197678, “Cvill6 and Cvill7: Potent and Selective Peptide Blockers of Kv1.2 Ion Channel Isolated from Mexican Scorpion Centruroides villegasi” (Toxins, 2025).

For one assay, the system named is Kv1.2. Conditions: ref [21],[22]; cited from earlier work. The source says: The Kv1.2 ion channel, a member of voltage-gated potassium channels, is encoded by the KCNA2 gene. Kv1.2 is predominantly expressed in the central nervous system (CNS) abundantly in the cerebellum, hippocampus, and cortex. It plays a crucial role in action potential propagation, neuronal excitability, and synaptic transmission. Gain-of-function (GOF) mutations in KCNA2 cause increased Kv1.2 activity, resulting in excessive potassium conductance leading to neuronal hyperpolarization, and impairing normal brain function. A decade ago, Kv1.2 emerged as a key factor ...

A further assay deals with T1, hKv1.3 (Homo sapiens, UniProt P22001).
T1 construct: peripheral blood mononuclear cells (PBMCs) were isolated from the healthy donor’s blood; endogenous in cells
Nature of the assay: cell-based. Type of assay: cell-based. The text has this:
Therefore, we aimed to investigate the effects of Cvill6 and Cvill7 on voltage-gated K^+ ion channels. Among the tested ion channels there were four members from the Shaker-related human Kv1 family, hKv1.1, hKv1.2, hKv1.3, and hKv1.5 (Figure 3A–E), and one member of the human ether-a-go-go-related (hERG) cardiac K^+ channel hKv11.1 (hERG1, Figure 3F). For current recordings, Kv1.1, Kv1.2, and Kv1.5 were transiently expressed in CHO cells while for Kv11.1 a stable HEK293 cell line was used. To record Kv1.3 currents human peripheral T lymphocytes were activated with Phytohemagglutinin A (PHA) to boost Kv1.3 expression and Ca^2+-free intracellular solution to prevent the KCa3.1 channel opening. […] Appropriate voltage protocols were applied to record the K^+ currents from voltage-clamped cells in whole-cell configurations. Toxins were freshly dissolved in the bath solution supplemented with 0.1 mg/mL BSA and applied to the patched cells via a gravity-fed micro-perfusion system with an approximate flow rate of 200 µL/min.
To avoid toxin adsorption onto the plastic surfaces of the perfusion system, 0.1 mg/mL of bovine serum albumin (BSA, Sigma-Aldrich, Budapest, Hungary) was also added into all bath solutions prior to the patch-clamp assay.
Whole-cell currents were recorded using the patch-clamp technique in voltage-clamp mode, following standard protocols. […] Micropipettes were made from GC150F-7.5 borosilicate capillaries (Harvard Apparatus Co., Holliston, MA, USA) using a Sutter P2000 laser puller with tip resistance generally ranging from 3–6 MΩ in the bath solution. Only recordings with a leak current at the holding potential (Vh) of <10% of the peak current at the test potential were included in the data analysis. All recordings were performed at room temperature (20–25 °C). Control and test solutions were perfused to the cells via a gravity-driven micro-perfusion system and AutoMate Perfusion Pencil Multi-Barrel Manifold Tip (AutoMate Scientific, Berkeley, CA, USA), with an approximate flow rate of 200 µL/min, and the excess amount of bath solution was continuously removed from the recording chamber using vacuum suction.
The duration of depolarization pulses was 15 ms for Kv1.3 and 50 ms for Kv1.1 and Kv1.5. However, for Kv1.2, 15–500 ms-long pulses were used to achieve the saturated peak current due to the variable activation kinetics of this channel. […] KCa2.2 and KCa3.1 currents were recorded by applying 150 ms-long voltage ramps to +50 mV from −120 mV every 10 s; the Vh was set to −85 mV.
Before analysis, all current traces were digitally filtered using three-point boxcar smoothing and were corrected for ohmic leakage, only if required. […] Data points in the concentration–response curve represent the mean RCF values of three to six individual cells, with error bars denoting the standard error of the mean (SEM). The data points for each concentration were fitted using the Hill equation: RCF = IC50^H/(IC50^H + [toxin]^H), where IC50 is the dissociation constant, H represents the Hill coefficient, and [toxin] is the concentration of the toxin.
To study the binding kinetics of Cvill toxins, the peak current during the application of toxin at time point t (It) was normalized to the peak current (I0) before the toxin exposure (Inorm = It/I0) and plotted as a function of time.

Another assay deals with T2, hKv1.1 (Homo sapiens, UniProt Q09470).
T2 construct: host or cells: CHO cells, transient transfection (Lipofectamine 2000)
The experiment in a line: cell-based. Type of assay: cell-based.

For the next assay, the system named is hKv1.5. Type of assay: cell-based, human.
The target of the next assay is T3, hKv1.2 (Homo sapiens, UniProt P16389).
T3 construct: host or cells: CHO cells, transient transfection (Lipofectamine 2000)
Nature of the assay: Whole-cell patch-clamp, hKv1.2 current in transiently transfected CHO cells. It is filed as cell-based. Conditions: positive control. For orientation: The patch-clamp technique gives a direct electrical read-out from membranes.

T1 sequence (P22001 whole entry): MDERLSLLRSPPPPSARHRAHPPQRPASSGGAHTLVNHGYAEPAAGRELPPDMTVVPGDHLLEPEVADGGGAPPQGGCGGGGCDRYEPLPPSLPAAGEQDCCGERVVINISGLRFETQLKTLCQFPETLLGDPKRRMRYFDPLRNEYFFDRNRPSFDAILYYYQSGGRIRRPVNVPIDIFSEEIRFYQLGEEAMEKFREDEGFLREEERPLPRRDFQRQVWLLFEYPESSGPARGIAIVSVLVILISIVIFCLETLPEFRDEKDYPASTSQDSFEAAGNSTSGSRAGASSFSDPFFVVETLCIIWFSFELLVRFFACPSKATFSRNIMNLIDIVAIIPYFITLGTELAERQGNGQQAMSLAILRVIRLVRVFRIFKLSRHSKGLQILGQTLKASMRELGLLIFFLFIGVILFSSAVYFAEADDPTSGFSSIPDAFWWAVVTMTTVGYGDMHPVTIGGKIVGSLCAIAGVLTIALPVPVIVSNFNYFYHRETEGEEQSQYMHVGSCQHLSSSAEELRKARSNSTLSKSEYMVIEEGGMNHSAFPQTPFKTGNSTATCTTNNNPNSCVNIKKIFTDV
T2 sequence (Q09470 whole entry): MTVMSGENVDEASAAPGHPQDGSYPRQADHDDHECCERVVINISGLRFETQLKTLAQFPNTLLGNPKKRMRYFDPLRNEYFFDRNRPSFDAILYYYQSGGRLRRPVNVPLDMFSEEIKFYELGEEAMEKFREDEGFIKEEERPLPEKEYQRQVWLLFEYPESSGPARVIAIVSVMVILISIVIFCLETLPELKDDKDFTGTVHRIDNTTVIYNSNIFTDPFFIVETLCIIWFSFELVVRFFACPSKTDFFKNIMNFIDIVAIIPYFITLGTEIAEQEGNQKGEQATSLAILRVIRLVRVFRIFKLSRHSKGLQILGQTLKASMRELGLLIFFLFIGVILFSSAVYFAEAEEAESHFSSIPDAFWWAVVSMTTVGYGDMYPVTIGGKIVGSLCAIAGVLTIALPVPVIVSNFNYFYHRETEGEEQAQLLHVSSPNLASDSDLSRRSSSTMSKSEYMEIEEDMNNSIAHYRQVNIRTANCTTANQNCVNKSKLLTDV
T3 sequence (P16389 whole entry): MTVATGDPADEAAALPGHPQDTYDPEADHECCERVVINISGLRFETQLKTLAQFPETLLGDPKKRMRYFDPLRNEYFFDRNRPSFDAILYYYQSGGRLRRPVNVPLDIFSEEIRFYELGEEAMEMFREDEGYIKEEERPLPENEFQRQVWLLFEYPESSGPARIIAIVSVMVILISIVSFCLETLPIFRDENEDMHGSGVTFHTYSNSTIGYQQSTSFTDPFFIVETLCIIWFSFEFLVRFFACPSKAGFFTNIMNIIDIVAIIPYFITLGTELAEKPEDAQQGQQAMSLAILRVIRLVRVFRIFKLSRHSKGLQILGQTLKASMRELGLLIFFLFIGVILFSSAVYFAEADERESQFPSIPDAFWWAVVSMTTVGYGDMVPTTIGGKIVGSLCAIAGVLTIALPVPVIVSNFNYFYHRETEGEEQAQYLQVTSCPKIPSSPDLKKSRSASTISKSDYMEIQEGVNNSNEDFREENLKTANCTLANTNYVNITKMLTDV
Experimental for hKv1.1: (§1) Chinese hamster ovary (CHO) cells (generously provided by Yosef Yarden, Weizmann Institute of Science, Rehovot, Israel) or human embryonic kidney (HEK293) cells were cultured and maintained in Dulbecco’s modified Eagle medium (DMEM, Thermo Fisher Scientific, Waltham, MA, USA) supplemented with 2 mM L-glutamine, 10% fetal bovine serum (FBS), 100 µg/mL streptomycin, and 100 U/mL penicillin-g (Sigma-Aldrich, Budapest, Hungary) following standard culturing conditions [52]. For transient expression of ion channels, CHO cells were transfected using the Lipofectamine 2000 kit (Invitrogen, Waltham, MA, USA) following the manufacturer’s instructions with plasmids encoding specific ion channels, including hKv1.1 (KCNA1 gene), hKv1.2 (KCNA2 gene), and hKv1.5 (KCNA5 gene) in a pCMV6-AC-GFP vector (OriGene Technologies), hKCa2.2 (KCNN2 gene) in a pCDN3 plasmid (for this transfection a GFP containing plasmid was co-transfected, courtesy of Bernard Attali, Tel Aviv University, Tel Aviv, Israel), and hKCa3.1 (KCNN4 gene) in a pEGFP-C1 vector (a kind gift by H. Wulff, University of California, Davis, CA, USA). […] Electrophysiological recordings were typically conducted 24 to 48 h after transfection.
(§2) Whole-cell currents were recorded using the patch-clamp technique in voltage-clamp mode, following standard protocols [73]. […] Micropipettes were made from GC150F-7.5 borosilicate capillaries (Harvard Apparatus Co., Holliston, MA, USA) using a Sutter P2000 laser puller with tip resistance generally ranging from 3–6 MΩ in the bath solution. Only recordings with a leak current at the holding potential (Vh) of <10% of the peak current at the test potential were included in the data analysis. All recordings were performed at room temperature (20–25 °C). Control and test solutions were perfused to the cells via a gravity-driven micro-perfusion system and AutoMate Perfusion Pencil Multi-Barrel Manifold Tip (AutoMate Scientific, Berkeley, CA, USA), with an approximate flow rate of 200 µL/min, and the excess amount of bath solution was continuously removed from the recording chamber using vacuum suction.
(§3) The duration of depolarization pulses was 15 ms for Kv1.3 and 50 ms for Kv1.1 and Kv1.5. However, for Kv1.2, 15–500 ms-long pulses were used to achieve the saturated peak current due to the variable activation kinetics of this channel [74].
Experimental for hKv1.2: as §1, §2, §3
Experimental for hKv1.5: Chinese hamster ovary (CHO) cells (generously provided by Yosef Yarden, Weizmann Institute of Science, Rehovot, Israel) or human embryonic kidney (HEK293) cells were cultured and maintained in Dulbecco’s modified Eagle medium (DMEM, Thermo Fisher Scientific, Waltham, MA, USA) supplemented with 2 mM L-glutamine, 10% fetal bovine serum (FBS), 100 µg/mL streptomycin, and 100 U/mL penicillin-g (Sigma-Aldrich, Budapest, Hungary) following standard culturing conditions [52]. For transient expression of ion channels, CHO cells were transfected using the Lipofectamine 2000 kit (Invitrogen, Waltham, MA, USA) following the manufacturer’s instructions with plasmids encoding specific ion channels, including hKv1.1 (KCNA1 gene), hKv1.2 (KCNA2 gene), and hKv1.5 (KCNA5 gene) in a pCMV6-AC-GFP vector (OriGene Technologies), hKCa2.2 (KCNN2 gene) in a pCDN3 plasmid (for this transfection a GFP containing plasmid was co-transfected, courtesy of Bernard Attali, Tel Aviv University, Tel Aviv, Israel), and hKCa3.1 (KCNN4 gene) in a pEGFP-C1 vector (a kind gift by H. Wulff, University of California, Davis, CA, USA). […] Electrophysiological recordings were typically conducted 24 to 48 h after transfection. […]
Whole-cell currents were recorded using the patch-clamp technique in voltage-clamp mode, following standard protocols [73]. […]

In the case of `Nc1ccncc1` [4-aminopyridine], the “effect on gain-of-function defects in patients with KCNA2-related encephalopathy” value in the assay with Kv1.2 is reported as “can mitigate the gain-of-function defects in patients”. Take `CC[N+](CC)(CC)CC` [TEA^+, tetraethylammonium chloride, reference compound]: the “inhibition of Kv1.3 by positive control” value against hKv1.3 is “fully reversible inhibitors”. For the same compound, at hKv1.1, the “inhibition of Kv1.1 by positive control” value is reported as “fully reversible inhibitors”. Also, the “inhibition of Kv1.5 by positive control” value with hKv1.5 is on record as “fully reversible inhibitors”.

charybdotoxin [reference compound]: in the assay with hKv1.2, the “inhibition of Kv1.2 by positive control” value is recorded as “fully reversible inhibitors”.
